Results from patent US20240199698A1, “PEPTIDE AMPHIPHILE COMPOSITIONS AND METHODS OF USE THEREOF” (UAB RESEARCH FOUNDATION, priority 2022, published 2024).

Key:
[1] = tested on: patients with myocardial infarction or chronic coronary disease; settings: cited from earlier work
U937 cells = assay: Effects of colchicine on foam cell formation (Bodipy); type: cell-based; settings: tested 0, 2, 5, 10, 20, 40 nM; Ox-LDL 100 ug/mL, 3 days
Experimental: Experimental approach: U937 cells with a cell density of 5000 cell/well were seeded in a 48 well plate, then the colchicine with a selected concentration range from 0 to 40 nM, that is 0, 2 nM, 5 nM, 10 nM, 20 nM, and 40 nM, were added into each well-containing monocytes and RAMPI monocyte culture medium. Then each well were added with M-CSF (100 ng/mL), GM-CSF (25 ng/mL) and INF-γ (100 ng/mL) for macrophage formation. After 7 days of culture, then Ox-LDL (100 ug/mL) was added to each well and cultured for 3 days. After 3 days of culture, the effect of […] on foam cell formation was assessed by using Bodipy. It was shown that the suppression of foam cells was observed when the colchicine concentration is above 2 nM, that is, at the concentrations of 5 nM, 10 nM, 20 nM, and 40 nM (FIG. 18B)

[2] = tested on: diseased hAECs (TNF-α stimulated); assay: Effects of colchicine on diseased EC function (NO production, DAF-FM); type: cell-based, human; settings: tested 10, 20, 40, 80, 160 nM; three days; versus diseased hAECs without colchicine
Experimental: Experiment approach: hAECs were seeded in 48-well plate at a cell density of 5000 per well and allowed to attach and grow for 24 h to create a stable confluent monolayer of hAECs (hereafter the “endothelium”). Then, the diseased hAECs (“diseased endothelium”) were obtained by stimulating the hAECs with TNF-α (20 ng/mL) for 18 hours. After that, the colchicine at concentrations of 10 nM, 20 nM, 40 nM, 80 nM, and 160 nM was added to the hAECs after TNF-α stimulation, and then the hAECs were cultured for another three days. Then, the diseased hAEC function was assessed by measuring NO production by hAECs using DAF-FM (4-amino-5-methylamino-2′,7′-difluororescein). DAF-FM is essentially nonfluorescent until they react with NO to form a fluorescent benzotriazole. DAF-FM is cell-permeant and passively diffuses across cellular membranes. Once inside cells, it is de-acetylated by intracellular esterases. The fluorescence quantum yield of DAF-FM is —0.005, but increases about 160-fold, to ˜0.81, after reacting with nitric oxide. With excitation/emission maxima of 495/515 nm, DAF-FM can be detected by any instrument that can detect fluorescein, including fluorescent microplate readers. […] After the de-esterification, the fluorescence intensity of DAF-FM in hAECs was measured at (excitation/emission) 495/515 nm.

HAECs = assay: hAEC proliferation, CyQUANT Cell Proliferation Assay; type: cell-based, human; settings: sirolimus 0-50 nM, with or without 10 -9 M NO, three days
Experimental: Preparation of NO. The peptide amphiphiles (PA-C16-CA and PA-C16-K5) were synthesized, respectively. These two distinct PAs were mixed in a 9:1 ratio (YIGSR:KKKKK) to form PA-C16-YK5, which was subsequently reacted with NO gas to form PA-YK-NO. The released NO was collected, and NO concentration was measured using Greiss Assay.
Treatment on hAEC. hAECs were seeded in a 48-well plate at a cell density of 2000 per well and allowed to attach for 24 h (hereafter the “endothelium”). For the sirolimus-only group, the sirolimus at concentrations of 0, 0.25, 0.1, 0.5, 1, and 50 nM were added to the hAECs, and then the hAECs were cultured for another three days. Similarly, for the dual-treatment group, sirolimus at similar concentrations was combined with 10 -9 M NO and added to hAEC. Then, the proliferation of hAEC under different conditions was assessed by CyQUANT Cell Proliferation Assay after three days. Briefly, the culture medium in each well was removed, and the cells in the tissue culture plate were frozen overnight at −80° C.; then, the dye in the lysis buffer was added after completely thawing at room temperature. After 30 min incubation, the fluorescent signal was measured using a microplate reader at 485/528 nm.

[3] = cited from earlier work

SMILES | composite endpoint of cardiovascular death, resuscitated cardiac arrest, myocardial infarction, stroke, or urgent hospitalization for angina (COLCOT) ([1]; 0.5 mg once daily versus placebo, myocardial infarction within 30 days) | risk of acute cardiovascular events (LoDoCo) ([1]; 0.5 mg once daily, chronic coronary disease, open-label) | primary composite endpoint of cardiovascular mortality, myocardial infarction, ischemic stroke, and urgent revascularization (meta-analysis) ([1]; four major randomized controlled trials) | colchicine concentration at which suppression of foam cells was observed (U937 cells) | colchicine concentration at which NO production of diseased hAECs increased [2] | hAEC proliferation (HAECs) | solubility in water [3]
COc1cc2c(c(OC)c1OC)-c1ccc(OC)c(=O)cc1[C@@H](NC(C)=O)CC2 [colchicine, N[5′,6,7,9-tetrahydro-1,2,3,10-tetratmethoxy 9-oxobenzo[a]heptalen-7-yl], (S)-acetamide] | lower among those who received 0.5 mg of colchicine once daily than among those who received placebo | lower among those who received 0.5 mg of colchicine once daily than those who did not receive colchicine | significant reduction | above 2 nM | above 20 nM | – | –
CO[C@H]1C[C@@H]2CC[C@@H](C)[C@@](O)(O2)C(=O)C(=O)N2CCCC[C@H]2C(=O)O[C@H]([C@H](C)C[C@@H]2CC[C@@H](O)[C@H](OC)C2)CC(=O)[C@H](C)/C=C(\C)[C@@H](O)[C@@H](OC)C(=O)[C@H](C)C[C@H](C)/C=C/C=C/C=C/1C [Sirolimus] | – | – | – | – | – | reduced the proliferation of hAECs dose-dependently | virtually insoluble in water
